Assay results as given in patent US12545652B2, “Crystalline forms of a TYK2 inhibitor” (Sareum Limited, priority 2020, dated 2026).
Entries after “also recorded” stand apart in the source; their conditions may differ. Where two headings read alike, the source gives them in different places. Blank lines part the entries; values can stand above or below the compound they belong to.

Experiments:
TYK2 kinase = TYK2 kinase (Homo sapiens (Human), UniProt P29597); assay: TYK2 kinase inhibition assay (33P-ATP filter binding, Reaction Biology); type: biochemical; details: ratio of IC50 to TYK2 IC50
Sequence of TYK2 kinase (P29597 833-1187): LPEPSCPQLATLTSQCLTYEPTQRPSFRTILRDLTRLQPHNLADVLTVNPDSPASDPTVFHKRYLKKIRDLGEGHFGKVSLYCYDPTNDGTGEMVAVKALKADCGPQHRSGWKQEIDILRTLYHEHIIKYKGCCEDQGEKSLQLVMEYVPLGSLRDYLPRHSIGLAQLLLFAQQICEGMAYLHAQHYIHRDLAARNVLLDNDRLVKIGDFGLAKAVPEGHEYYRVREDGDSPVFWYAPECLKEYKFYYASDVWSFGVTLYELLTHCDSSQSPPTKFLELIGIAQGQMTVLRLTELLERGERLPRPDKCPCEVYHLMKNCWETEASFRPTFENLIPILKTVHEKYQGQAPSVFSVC
Experimental: (§1) The compound of the formula (1) was assayed for its ability to inhibit TYK2 kinase and other JAK kinases.
(§2) Substrates and kinases used in the assays are identified in Table 12 below.
(§3) Kinase assays were performed at Reaction Biology Corp., Malvern, Pennsylvania, USA, using the general procedure set out below. In the assays, the ATP concentration was 100 μM and the top compound concentrations were 10 μM.
(§4) Note that the TYK2 and JAK kinase data in Table 7 on page 61 of WO 2015/032423 were generated using an assay in which the ATP concentration was 10 μM whereas, as indicated above, the assay described in the protocol below used an ATP concentration of 100 μM. […]

JAK1 = JAK1 (Homo sapiens (Human), UniProt P23458); assay: JAK1 kinase inhibition assay (33P-ATP filter binding, Reaction Biology); type: biochemical; details: ratio of IC50 to TYK2 IC50
Sequence of JAK1 (P23458 866-1154): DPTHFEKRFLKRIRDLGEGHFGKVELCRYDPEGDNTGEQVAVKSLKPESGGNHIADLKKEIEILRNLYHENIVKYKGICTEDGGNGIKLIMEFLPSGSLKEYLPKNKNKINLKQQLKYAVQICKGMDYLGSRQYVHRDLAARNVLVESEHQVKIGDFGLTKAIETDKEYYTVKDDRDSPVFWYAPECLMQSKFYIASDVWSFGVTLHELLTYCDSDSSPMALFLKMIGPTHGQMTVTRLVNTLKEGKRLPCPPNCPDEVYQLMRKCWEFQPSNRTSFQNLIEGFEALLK
Experimental: as §1, §2, §3, §4

JAK2 = JAK2 kinase inhibition assay (33P-ATP filter binding, Reaction Biology); type: biochemical
Experimental: as §1, §2, §3, §4

JAK3 = JAK3 (Homo sapiens (Human), UniProt P52333); assay: JAK3 kinase inhibition assay (33P-ATP filter binding, Reaction Biology); type: biochemical
Sequence of JAK3 (P52333 781-1124): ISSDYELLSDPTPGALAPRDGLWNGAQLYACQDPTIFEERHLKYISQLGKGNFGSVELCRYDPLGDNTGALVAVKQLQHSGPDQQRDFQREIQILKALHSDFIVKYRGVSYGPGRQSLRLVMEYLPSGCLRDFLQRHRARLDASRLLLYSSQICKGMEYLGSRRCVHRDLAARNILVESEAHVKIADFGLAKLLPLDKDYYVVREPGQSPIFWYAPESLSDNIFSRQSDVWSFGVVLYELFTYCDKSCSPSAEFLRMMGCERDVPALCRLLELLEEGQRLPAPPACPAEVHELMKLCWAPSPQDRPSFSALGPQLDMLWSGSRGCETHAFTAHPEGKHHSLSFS
Experimental: as §1, §2, §3, §4

[1] = Hepatocyte stability assay, mouse; type: in vitro ADME; details: male, CD-1, pooled hepatocytes
Experimental: (§5) Test and control compounds were incubated with hepatocytes at 37° C. Aliquots were removed at 6 timepoints over a one hour period. Samples were centrifuged and the supernatant fractions analysed for parent compound by mass spectrometry (LC-MS/MS).
(§6) The amount of compound remaining (expressed as %) was determined from the MS response in each sample relative to that in the T=0 samples, and used to determine the half-life and intrinsic clearance of the compound.

[2] = Hepatocyte stability assay, rat; type: in vitro ADME; details: male, Sprague-Dawley, pooled hepatocytes
Experimental: as §5, §6

[3] = Hepatocyte stability assay, dog; type: in vitro ADME; details: male, Beagle, pooled hepatocytes
Experimental: as §5, §6

[4] = Hepatocyte stability assay, human; type: in vitro ADME; details: both sexes, pooled hepatocytes; for half-life: human
Experimental: as §5, §6

[5] = system: pSTAT3 in IL-22 stimulated HT29 cells; assay: pSTAT3 inhibition in response to IL-22 stimulation in serum starved HT29 cells; type: cell-based; details: Homo sapiens, HT-29
Experimental: HT29 cells were serum starved overnight before the four test compounds were diluted to generate a 9-point semi-log dose dilution with a top concentration of 10 μM, plus vehicle control. HT29 cells were incubated with the test compounds for 20 minutes at 37° C. HT29 cells were incubated for a further 15 minutes with 10 ng/ml human IL-22 before cells were fixed with 4% PFA for 10 minutes, and 90% methanol for 30 minutes before being labelled with a phospho-STAT3Y705 antibody (CST #9145). Cells were rinsed three times using 0.5% BSA/PBS solution before being incubated with Alexa-488 anti-rabbit secondary antibodies.
Mean fluorescence intensity of phospho-STAT3 in single cells was analysed by flow cytometry using an Intellicyt iQue instrument and FlowJo software. The IC50 was determined using a four-parameter analysis following removal of background signal and normalisation to the DMSO control.

[6] = Solubility at 25° C. by HPLC of filtrates after equilibration of Form A in solvents; type: physicochemical; details: for solubility: 25 °C, organic solvent or mixture, thermodynamic from solid
[7] = Dynamic vapour sorption (DVS); type: physicochemical
Experimental: Sorption isotherms were obtained using a Hiden Isochema moisture sorption analyser (model IGAsorp), controlled by IGAsorp Systems Software V6.50.48. The sample was maintained at a constant temperature (25° C.) by the instrument controls. The humidity was controlled by mixing streams of dry and wet nitrogen, with a total flow of 250 ml·min^−1. The instrument was verified for relative humidity content by measuring three calibrated Rotronic salt solutions (10-50-88%). The weight change of the sample was monitored as a function of humidity by a microbalance (accuracy +/−0.005 mg). A defined amount of sample was placed in a tared mesh stainless steel basket under ambient conditions. A full experimental cycle typically consisted of three scans (sorption, desorption and sorption) at a constant temperature (25° C.) and 10% RH intervals over a 0-90% range (60 minutes for each humidity level).

[8] = Compression stability test (10×10^4N force); type: physicochemical
Experimental: Compression stability tests were carried out on samples from two batches of crystalline Form A and samples from two batches of Crystalline Form B. One pair of samples of Form A and Form B was subjected to compression under 10×10^4N force for 23 and 23¾ hours respectively to assess the impact upon form fate and chemical stability.
The other pair of samples of Form A and Form B was subjected to similar compression pressures over an extended duration of 7 days to assess the impact of prolonged compression force upon form fate and chemical stability.

[9] = Human hepatocytes, read-out: T1/2
[10] = IL-22 stimulated serum starved HT29 cells, read-out: pSTAT3 inhibition IC50

- Selectivity v TYK2: TYK2 (TYK2 kinase): 1
- Selectivity v TYK2: JAK1 (JAK1): 10.5
- selectivity for TYK2 compared to JAK2 (JAK2; biochemical assays): approximately 25 fold
- Selectivity v TYK2: JAK2 (JAK2; ratio of IC50 to TYK2 IC50): 26.3
- selectivity for TYK2 compared to JAK3 (JAK3; biochemical assays): ~110 fold
- Selectivity v TYK2: JAK3 (JAK3; ratio of IC50 to TYK2 IC50): 111.6
- half-life [1]: 65.3 min
- half-life [2]: 30.6 min
- half-life [3]: > 460 min
- hepatocyte CLint [3]: < 3 µL/min/1e6 cells
- half-life [4, 9]: > 460 min
- hepatocyte CLint ([4]; Human hepatocytes): < 3 µL/min/1e6 cells
- IC50 ([5]; IL-22 stimulated HT29 cells, read-out: IC50 against pSTAT3 inhibition): < 100 nM
- IC50 [5, 10]: 16 nM
- Solubility at 25° C. ([6]; 2-Chlorobutane): < 1000 µg/mL
- Solubility at 25° C. ([6]; 4:1 THF/water): > 10000 µg/mL
- Solubility at 25° C. ([6]; Cyclohexane): < 1000 µg/mL
- Solubility at 25° C. ([6]; DCM): > 10000 µg/mL
- Solubility at 25° C. ([6]; Nitromethane): > 10000 µg/mL
- solubility ([6]; TBME): < 1000 µg/mL
- Solubility at 25° C. ([6]; THF): > 10000 µg/mL
- Solubility at 25° C. ([6]; Water): < 1000 µg/mL
- solubility ([6]; anisole): > 10000 µg/mL
- solubility ([6]; heptane, no peak detected in the chromatogram for the filtrate (×100 dilution)): < 1000 µg/mL
SMILES: NC(=O)c1nc(-c2c(Cl)cccc2Cl)oc1Nc1ccc(C(=O)N2CCS(=O)(=O)CC2)cc1 [Compound (1), 2-(2,6-dichlorophenyl)-5-[4-(1,1-dioxo-1,4-thiazinane-4-carbonyl)anilino]oxazole-4-carboxamide]

- XRPD examination of the solid isolated post-DVS ([7]; at 0 and 90% RH): no clear evidence of form modification
- DVS total weight gain upon sorption ([7]; from 0 to 90% RH, 25° C.): ca. 0.57 wt %
- DVS weight reduction upon the first desorption ([7]; from 50 to 0% RH, 25° C.): ca. 0.38 wt %
- DVS hysteresis ([7]; repeat desorption and sorption, most evident between 10 and 60% RH): ca. 0.11 wt %
SMILES: NC(=O)c1nc(-c2c(Cl)cccc2Cl)oc1Nc1ccc(C(=O)N2CCS(=O)(=O)CC2)cc1 [Form B, 2-(2,6-dichlorophenyl)-5-[4-(1,1-dioxo-1,4-thiazinane-4-carbonyl)anilino]oxazole-4-carboxamide]
- HPLC assessment post-compression (chemical stability) ([8]; compression for 7 days): no change to the impurity profile; also recorded: no discernible chemical degradation
- XRPD examination of solids isolated post-compression (form fate) ([8]; compression for both ca. 1 and 7 days): diffraction pattern matching the input Pattern B but of reduced diffraction resolution
- HPLC assessment post-compression (chemical stability) ([8]; compression for ca. 1 day (23 / 23¾ hours), 10×10^4N): no change to the impurity profile; also recorded: no discernible chemical degradation

- half-life [1]: 27 min
- half-life [2]: 14.8 min
- half-life [3]: 53.5 min
- half-life [4, 9]: 124 min
- half-life ([4]; human hepatocytes, read-out: half-life in humans): > 120 min
- IC50 [5, 10]: 53 nM
SMILES: NC(=O)c1nc(-c2c(Cl)cccc2Cl)oc1Nc1ccc(C(=O)N2CCOCC2)cc1 [Comparative Compound B, 2-(2,6-dichloro-phenyl)-5-[4-(morpholine-4-carbonyl)-phenylamino]-oxazole-4-carboxylic acid amide, reference compound]
